# How the values were obtained:
# [1] = tested on: Trypanosoma cruzi; experiment: In vivo trial on Trypanosoma cruzi in the acute phase, Balb/c mice: serological evaluation (anti-T. cruzi ELISA); conditions: for 1st serology (anti-T. cruzi ELISA, optical density): 40 days post-infection, 15 days post-treatment; for 2nd serology (anti-T. cruzi ELISA, optical density): 68 days post-infection, 45 days post-treatment
# Text: (§1) Animals and parasites: The Balb/c-type mice are bred in the animal house of the Health Sciences Research Institute (IICS, Asuncion, Paraguay) and are 6 to 8 weeks old at the time of the experimental protocols.
# (§2) For these trials, the CL strain (Brener clone) of T. cruzi is used in the circulating form of the parasite (trypomastigotes). The animals are infected intraperitoneally with 5000 parasites; this strain produces its parasite peak 21 to 25 days after infection. Each week, the number of parasites is verified by means of a blood sample taken from the tail of the mouse.
# (§3) Infection and treatment: The treatments with benznidazole, the reference medicinal product, and canthin-6-one begin 11 days after parasitic infection, at a rate of 50 mg/kg or 200 mM/kg for benznidazole and at the concentration of 5 mg/kg or 20 mM/kg for canthin-6-one. The duration of the treatments is fixed at two weeks and the chosen route of administration is oral for benznidazole and canthin-6-one; furthermore, a group of mice is treated with canthin-6-one administered subcutaneously. The untreated and infected mice are given 100 μl of a phosphate buffered saline solution.
# (§4) • weekly counting of the number of parasites circulating in the peripheral blood throughout the experiment, i.e. 10 weeks; • observation of mortality; • two serological evaluations: 40 days post-infection, i.e. 15 days after treatment has been stopped, and 68 days post-infection, i.e. 45 days post-treatment. The serological evaluation is carried out by means of a Chagas ELISA assay (enzyme linked immunoassay) kit, IISC, Asuncion. The optical densities are measured with an ELISA plate reader (Titerek, Unistan, I).
# (§5) Statistical studies: The mean and the standard deviations of each group are calculated, the differences between the groups are determined by means of the Student's test and the Kruskal-Wallis non-parametric analysis of variance test. The comparisons are carried out between the nontreated group and the treated groups, P<0.05.
# [2] = tested on: Trypanosoma cruzi; experiment: In vivo trial on Trypanosoma cruzi in the acute phase, Balb/c mice: parasitological evaluation (parasites in peripheral blood)
# Text: as §1, §2, §3, §4, §5
# [3] = tested on: Trypanosoma cruzi; experiment: In vivo trial on Trypanosoma cruzi in the chronic phase, Balb/c mice: parasitemia and mortality
# Text: (§6) The Balb/c-type mice are bred in the animal house of the Health Sciences Research Institute (IICS, Asuncion, Paraguay) and are 6 to 8 weeks old at the time of the experimental protocols. For this experimental protocol, the CL strain (Brener clone) of T. cruzi is used in the circulating form (trypomastigotes), and the strain is maintained in routine culture on an animal model by passage every 14 days. The animals are infected intraperitoneally with 1000 parasites. Under these experimental conditions, the parasites develop slowly; this strain produces a parasite peak 21 to 28 days after infection. The majority of the mice survive (70-80%) with slight deterioration of their general physical condition and with absent or subpatent parasitemia. Each week, the number of parasites is verified by taking a blood sample from the tail of the mouse.
# […] The mice are then divided up into groups randomly. The treatments with benznidazole, the reference medicinal product, are administered at a concentration of 50 mg/kg or 200 mM/kg per day for 20 days, orally. Canthin-6-one is administered either orally or subcutaneously at a concentration of 5 mg/kg or 20 mM/kg per day for 20 days. A total dichloromethane extract of Zanthoxylum chiloperone var. angustifolium trunk bark is administered orally or subcutaneously at a concentration of 50 mg/kg per day for 20 days. For administration, the active principles are dissolved in 50 μl of a phosphate buffered saline (PBS) solution. The untreated and infected mice receive 50 μl of PBS.
# • Weekly counting of the number of parasites circulating in the peripheral blood throughout the experiment, i.e. 30 weeks. • Observation of mortality. • Three serological evaluations, 45 days before the beginning of treatments, 10 days after treatment has stopped and 75 days post-treatment. The serological evaluation is carried out using a Chagas ELISA assay (enzyme linked immunoassay) kit, IISC, Asuncion. The optical densities are measured with an ELISA plate reader (Titerek, Unistan, I). Statistical Studies:
# as §5, with “The” for “Statistical studies: The”, “calculated, and” for “calculated,”, “untreated” for “nontreated”
# [4] = tested on: Trypanosoma cruzi; experiment: In vivo trial on Trypanosoma cruzi in the chronic phase, Balb/c mice: serological evaluation (ELISA)
# Text: as §6
# For this long-duration experiment, the treatments begin 120 days after parasitic infection, when the parasitemia is subpatent in all the mice. The mice are then divided up into groups randomly. The treatments with benznidazole, the reference medicinal product, are administered at a concentration of 50 mg/kg or 200 mM/kg per day for 20 days, orally. Canthin-6-one is administered either orally or subcutaneously at a concentration of 5 mg/kg or 20 mM/kg per day for 20 days. A total dichloromethane extract of Zanthoxylum chiloperone var. angustifolium trunk bark is administered orally or subcutaneously at a concentration of 50 mg/kg per day for 20 days. For administration, the active principles are dissolved in 50 μl of a phosphate buffered saline (PBS) solution. The untreated and infected mice receive 50 μl of PBS.
# • Weekly counting of the number of parasites circulating in the peripheral blood throughout the experiment, i.e. […] The serological evaluation is carried out using a Chagas ELISA assay (enzyme linked immunoassay) kit, IISC, Asuncion. The optical densities are measured with an ELISA plate reader (Titerek, Unistan, I). Statistical Studies:
# as §5, with “The” for “Statistical studies: The”, “calculated, and” for “calculated,”, “untreated” for “nontreated”
smiles,measurement,setting,value
"O=C(Cn1ccnc1[N+](=O)[O-])NCc1ccccc1 [Benznidazole, benznidazole, reference compound]","1st serology (anti-T. cruzi ELISA, optical density)",[1]; 50 mg oral,0.1692 ± 0.1179
same,"2nd serology (anti-T. cruzi ELISA, optical density)",[1]; 50 mg oral,0.7934 ± 0.8607
same,"eradication of Trypanosoma cruzi from the infected organism, acute phase",[2]; 50 mg/kg/d,does not make it possible to obtain
same,number of parasites ± standard deviation,"[2]; day 4 post-infection (before treatment), 50 mg/kg oral, two weeks from day 11, n = 8",0
same,number of parasites ± standard deviation,"[2]; day 11 post-infection (period of treatment), 50 mg/kg oral, n = 8",0
same,number of parasites ± standard deviation,"[2]; day 18 post-infection (period of treatment), 50 mg/kg oral, n = 8",34.9 ± 98.6
same,number of parasites ± standard deviation,"[2]; day 25 post-infection (period of treatment), 50 mg/kg oral, n = 8",250.1 ± 503.5
same,number of parasites ± standard deviation,"[2]; day 32 post-infection, 50 mg/kg oral, two weeks from day 11, n = 8",296.8 ± 625.5
same,number of parasites ± standard deviation,"[2]; day 39 post-infection, 50 mg/kg oral, two weeks from day 11, n = 8",118.3 ± 192.9
same,number of parasites ± standard deviation,"[2]; day 45 post-infection, 50 mg/kg oral, two weeks from day 11, n = 8",300.8 ± 431.6
same,number of parasites ± standard deviation,"[2]; day 53 post-infection, 50 mg/kg oral, two weeks from day 11, n = 8",23.3 ± 65.8
same,number of parasites ± standard deviation,"[2]; day 60 post-infection, 50 mg/kg oral, two weeks from day 11, n = 8",65.3 ± 93.2
same,number of parasites ± standard deviation,"[2]; day 68 post-infection, 50 mg/kg oral, two weeks from day 11, n = 8",9.4 ± 26.5
same,Negative parasitemia/number of surviving mice,"[3]; 0 days post-treatment, 50 mg/kg/d orally for 20 days",5/5
same,Negative parasitemia/number of surviving mice,"[3]; 10 d post-treatment, 50 mg/kg/d orally for 20 days",2/5
same,Negative parasitemia/number of surviving mice,"[3]; 40 d post-treatment, 50 mg/kg/d orally for 20 days",5/5
same,Negative parasitemia/number of surviving mice,"[3]; 60 d post-treatment, 50 mg/kg/d orally for 20 days",5/5
same,ELISA (optical density ± standard deviation),"[4]; 10 d post-treatment, 50 mg/kg/d orally",1.712 ± 0.473
same,ELISA (optical density ± standard deviation),"[4]; 43 days before treatment (baseline), 50 mg/kg/d orally",2.072 ± 0.220
same,ELISA (optical density ± standard deviation),"[4]; 75 d post-treatment, 50 mg/kg/d orally",1.979 ± 0.350
O=c1ccc2nccc3c4ccccc4n1c23 [canthin-6-one],"1st serology (anti-T. cruzi ELISA, optical density)",[1]; 5 mg SC,0.2151 ± 0.1447
same,"1st serology (anti-T. cruzi ELISA, optical density)",[1]; 5 mg oral,0.1105 ± 0.0387
same,"2nd serology (anti-T. cruzi ELISA, optical density)",[1]; 5 mg SC,0.1347 ± 0.6327
same,"2nd serology (anti-T. cruzi ELISA, optical density)",[1]; 5 mg oral,0.3953 ± 0.7531
same,effective dose against Trypanosoma cruzi relative to benznidazole,"[2]; activity assays, general statement",doses ten times lower than the doses at which benznidazole is effective
same,number of parasites ± standard deviation,"[2]; day 4 post-infection (before treatment), 5 mg/kg oral, two weeks from day 11, n = 7",0
same,number of parasites ± standard deviation,"[2]; day 4 post-infection (before treatment), 5 mg/kg subcutaneous, two weeks from day 11, n = 8",0
same,number of parasites ± standard deviation,"[2]; day 11 post-infection (period of treatment), 5 mg/kg oral, n = 7",0
same,number of parasites ± standard deviation,"[2]; day 11 post-infection (period of treatment), 5 mg/kg subcutaneous, n = 8",0
same,number of parasites ± standard deviation,"[2]; day 18 post-infection (period of treatment), 5 mg/kg oral, n = 7",285 ± 515.9
same,number of parasites ± standard deviation,"[2]; day 18 post-infection (period of treatment), 5 mg/kg subcutaneous, n = 8",766.3 ± 719.2
same,number of parasites ± standard deviation,"[2]; day 25 post-infection (period of treatment), 5 mg/kg oral, n = 7",402 ± 837.7
same,number of parasites ± standard deviation,"[2]; day 25 post-infection (period of treatment), 5 mg/kg subcutaneous, n = 8",88.4 ± 142.9
same,number of parasites ± standard deviation,"[2]; day 32 post-infection, 5 mg/kg oral, two weeks from day 11, n = 7",426.2 ± 664.5
same,number of parasites ± standard deviation,"[2]; day 32 post-infection, 5 mg/kg subcutaneous, two weeks from day 11, n = 8",267.5 ± 546.5
same,number of parasites ± standard deviation,"[2]; day 39 post-infection, 5 mg/kg oral, two weeks from day 11, n = 7",36.6 ± 58.4
same,number of parasites ± standard deviation,"[2]; day 39 post-infection, 5 mg/kg subcutaneous, two weeks from day 11, n = 8",2077.1 ± 2214.2
same,number of parasites ± standard deviation,"[2]; day 45 post-infection, 5 mg/kg oral, two weeks from day 11, n = 7",34.4 ± 76.9
same,number of parasites ± standard deviation,"[2]; day 45 post-infection, 5 mg/kg subcutaneous, two weeks from day 11, n = 8",314.1 ± 499.3
same,number of parasites ± standard deviation,"[2]; day 53 post-infection, 5 mg/kg oral, two weeks from day 11, n = 7",58.4 ± 80.6
same,number of parasites ± standard deviation,"[2]; day 53 post-infection, 5 mg/kg subcutaneous, two weeks from day 11, n = 8",473.4 ± 921.9
same,number of parasites ± standard deviation,"[2]; day 60 post-infection, 5 mg/kg oral, two weeks from day 11, n = 7",16 ± 35.8
same,number of parasites ± standard deviation,"[2]; day 60 post-infection, 5 mg/kg subcutaneous, two weeks from day 11, n = 8",129.9 ± 194.4
same,number of parasites ± standard deviation,"[2]; day 68 post-infection, 5 mg/kg oral, two weeks from day 11, n = 7",0
same,number of parasites ± standard deviation,"[2]; day 68 post-infection, 5 mg/kg subcutaneous, two weeks from day 11, n = 8",34.9 ± 98.6
same,"eradication of Trypanosoma cruzi from the infected organism, acute phase",[2]; orally 5 mg/kg/d,complete eradication of Trypanosoma cruzi from the infected organism
same,"activity compared with benznidazole (50 mg/kg/d), acute phase","[2]; orally 5 mg/kg/d, from the 39th day after infestation, 15 days after the end of treatment",activity that is much greater than the benznidazole
same,Negative parasitemia/number of surviving mice,"[3]; 0 days post-treatment, 5 mg/kg orally for 20 days",7/8
same,Negative parasitemia/number of surviving mice,"[3]; 0 days post-treatment, 5 mg/kg/d subcutaneously for 20 days",6/8
same,Negative parasitemia/number of surviving mice,"[3]; 10 d post-treatment, 5 mg/kg orally for 20 days",7/8
same,Negative parasitemia/number of surviving mice,"[3]; 10 d post-treatment, 5 mg/kg/d subcutaneously for 20 days",7/8
same,Negative parasitemia/number of surviving mice,"[3]; 40 d post-treatment, 5 mg/kg orally for 20 days",8/8
same,Negative parasitemia/number of surviving mice,"[3]; 40 d post-treatment, 5 mg/kg/d subcutaneously for 20 days",6/8
same,Negative parasitemia/number of surviving mice,"[3]; 60 d post-treatment, 5 mg/kg orally for 20 days",8/8
same,Negative parasitemia/number of surviving mice,"[3]; 60 d post-treatment, 5 mg/kg/d subcutaneously for 20 days",6/8
same,"eradication of Trypanosoma cruzi from the infected organism, chronic phase",[3]; orally 5 mg/kg/d for 20 days,complete eradication of Trypanosoma cruzi from the infected organism
same,"protection of the mice against death, chronic phase",[3]; orally 5 mg/kg/d for 20 days,protects the mice against death
same,"activity compared with benznidazole (50 mg/kg/d), chronic phase","[3]; orally 5 mg/kg/d for 20 days from the 108th day after parasitic infection, 79 days after the end of the treatment",greater activity than benznidazole
same,ELISA (optical density ± standard deviation),"[4]; 10 d post-treatment, 5 mg/kg orally",1.621 ± 0.547
same,ELISA (optical density ± standard deviation),"[4]; 10 d post-treatment, 5 mg/kg/d subcutaneously",1.850 ± 0.405
same,ELISA (optical density ± standard deviation),"[4]; 43 days before treatment (baseline), 5 mg/kg orally",1.878 ± 0.348
same,ELISA (optical density ± standard deviation),"[4]; 43 days before treatment (baseline), 5 mg/kg/d subcutaneously",1.916 ± 0.368
same,ELISA (optical density ± standard deviation),"[4]; 75 d post-treatment, 5 mg/kg orally",1.799 ± 0.333
same,ELISA (optical density ± standard deviation),"[4]; 75 d post-treatment, 5 mg/kg/d subcutaneously",1.870 ± 0.268

# — US7705013B2, “Use of canthin-6-one, plant extracts containing same and derivatives thereof in the treatment of trypanosomiases” (Institut de Recherche pour le Developpement, priority 2002, dated 2010)
